Assays:
BRM = target: T1, BRM (Homo sapiens, UniProt P51531); experiment: ATPase catalytic activity of BRM, ADP-Glo in vitro biochemical assay; conditions: for IC50: ATPase catalytic activity, ADP-Glo, 30 nM BRM, 400 μM ATP; for Ratio*: ratio of BRG1 IC50 to BRM IC50
T1 construct: made in house; host or cells: High Five insect cells
Outline: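 Recombinant BRM (30 nM) hydrolysed 400 μM ATP with 20 nM salmon sperm DNA in pH 8 Tris buffer containing 20 mM MgCl2, 50 mM NaCl, 0.1% Tween-20 and 1 mM DTT, 1 h at room temperature. ADP formed was quantified by ADP-Glo luminescence.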

BRG-1 = target: T2, BRG-1 (Homo sapiens, UniProt P51532); experiment: ATPase catalytic activity of BRG-1, ADP-Glo in vitro biochemical assay; conditions: ATPase catalytic activity, ADP-Glo; 30 nM BRG-1, 400 μM ATP; read-out: BRG1 IC50
T2 construct: made in house; host or cells: High Five insect cells
Outline: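 Signal reflects ADP produced by the enzyme, quantified as luminescence after unused ATP is cleared and ADP is reconverted to ATP for the luciferase reaction; both steps run at room temperature, 40 and 60 min respectively.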

T1 sequence (P51531 whole entry): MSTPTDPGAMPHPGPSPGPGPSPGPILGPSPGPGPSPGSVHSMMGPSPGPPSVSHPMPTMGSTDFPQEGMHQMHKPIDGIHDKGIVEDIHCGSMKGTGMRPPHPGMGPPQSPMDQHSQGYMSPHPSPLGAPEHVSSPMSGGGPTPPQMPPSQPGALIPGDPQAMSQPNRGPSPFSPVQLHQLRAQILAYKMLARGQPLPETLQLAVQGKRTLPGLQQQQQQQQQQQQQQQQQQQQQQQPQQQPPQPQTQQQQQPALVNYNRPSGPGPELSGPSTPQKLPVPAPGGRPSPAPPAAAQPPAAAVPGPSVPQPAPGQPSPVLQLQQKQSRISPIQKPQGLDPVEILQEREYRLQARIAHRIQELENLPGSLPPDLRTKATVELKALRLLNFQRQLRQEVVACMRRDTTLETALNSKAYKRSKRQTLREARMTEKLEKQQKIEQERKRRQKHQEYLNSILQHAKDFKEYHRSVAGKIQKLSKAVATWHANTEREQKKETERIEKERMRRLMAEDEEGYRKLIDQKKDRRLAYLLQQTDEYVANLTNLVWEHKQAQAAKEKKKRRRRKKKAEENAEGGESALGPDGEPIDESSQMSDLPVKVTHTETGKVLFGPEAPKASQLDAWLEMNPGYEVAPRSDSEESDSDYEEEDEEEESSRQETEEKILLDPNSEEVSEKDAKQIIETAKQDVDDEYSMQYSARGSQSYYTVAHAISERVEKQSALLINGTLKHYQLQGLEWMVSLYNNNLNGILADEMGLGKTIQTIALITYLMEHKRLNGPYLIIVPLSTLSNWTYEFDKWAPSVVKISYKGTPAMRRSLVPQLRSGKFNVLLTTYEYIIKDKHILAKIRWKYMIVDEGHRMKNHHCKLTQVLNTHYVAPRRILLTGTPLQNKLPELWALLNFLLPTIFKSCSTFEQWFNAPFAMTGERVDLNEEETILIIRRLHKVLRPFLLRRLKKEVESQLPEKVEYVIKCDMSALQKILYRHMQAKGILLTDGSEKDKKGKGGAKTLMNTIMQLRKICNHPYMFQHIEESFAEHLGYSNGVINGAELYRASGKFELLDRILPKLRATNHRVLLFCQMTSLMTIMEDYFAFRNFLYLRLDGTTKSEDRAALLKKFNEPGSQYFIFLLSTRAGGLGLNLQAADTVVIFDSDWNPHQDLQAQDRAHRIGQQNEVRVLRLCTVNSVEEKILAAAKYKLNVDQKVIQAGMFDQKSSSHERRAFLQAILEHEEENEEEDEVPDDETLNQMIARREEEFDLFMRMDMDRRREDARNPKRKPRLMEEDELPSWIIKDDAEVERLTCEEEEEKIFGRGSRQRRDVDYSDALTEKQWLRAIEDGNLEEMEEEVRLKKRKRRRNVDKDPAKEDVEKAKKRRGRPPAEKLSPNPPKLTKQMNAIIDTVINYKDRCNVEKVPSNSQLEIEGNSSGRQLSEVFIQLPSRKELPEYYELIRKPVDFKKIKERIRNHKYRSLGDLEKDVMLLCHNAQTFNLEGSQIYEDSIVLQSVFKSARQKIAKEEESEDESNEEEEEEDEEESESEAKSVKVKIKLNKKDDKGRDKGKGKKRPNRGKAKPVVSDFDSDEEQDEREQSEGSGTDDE
T2 sequence (P51532 whole entry): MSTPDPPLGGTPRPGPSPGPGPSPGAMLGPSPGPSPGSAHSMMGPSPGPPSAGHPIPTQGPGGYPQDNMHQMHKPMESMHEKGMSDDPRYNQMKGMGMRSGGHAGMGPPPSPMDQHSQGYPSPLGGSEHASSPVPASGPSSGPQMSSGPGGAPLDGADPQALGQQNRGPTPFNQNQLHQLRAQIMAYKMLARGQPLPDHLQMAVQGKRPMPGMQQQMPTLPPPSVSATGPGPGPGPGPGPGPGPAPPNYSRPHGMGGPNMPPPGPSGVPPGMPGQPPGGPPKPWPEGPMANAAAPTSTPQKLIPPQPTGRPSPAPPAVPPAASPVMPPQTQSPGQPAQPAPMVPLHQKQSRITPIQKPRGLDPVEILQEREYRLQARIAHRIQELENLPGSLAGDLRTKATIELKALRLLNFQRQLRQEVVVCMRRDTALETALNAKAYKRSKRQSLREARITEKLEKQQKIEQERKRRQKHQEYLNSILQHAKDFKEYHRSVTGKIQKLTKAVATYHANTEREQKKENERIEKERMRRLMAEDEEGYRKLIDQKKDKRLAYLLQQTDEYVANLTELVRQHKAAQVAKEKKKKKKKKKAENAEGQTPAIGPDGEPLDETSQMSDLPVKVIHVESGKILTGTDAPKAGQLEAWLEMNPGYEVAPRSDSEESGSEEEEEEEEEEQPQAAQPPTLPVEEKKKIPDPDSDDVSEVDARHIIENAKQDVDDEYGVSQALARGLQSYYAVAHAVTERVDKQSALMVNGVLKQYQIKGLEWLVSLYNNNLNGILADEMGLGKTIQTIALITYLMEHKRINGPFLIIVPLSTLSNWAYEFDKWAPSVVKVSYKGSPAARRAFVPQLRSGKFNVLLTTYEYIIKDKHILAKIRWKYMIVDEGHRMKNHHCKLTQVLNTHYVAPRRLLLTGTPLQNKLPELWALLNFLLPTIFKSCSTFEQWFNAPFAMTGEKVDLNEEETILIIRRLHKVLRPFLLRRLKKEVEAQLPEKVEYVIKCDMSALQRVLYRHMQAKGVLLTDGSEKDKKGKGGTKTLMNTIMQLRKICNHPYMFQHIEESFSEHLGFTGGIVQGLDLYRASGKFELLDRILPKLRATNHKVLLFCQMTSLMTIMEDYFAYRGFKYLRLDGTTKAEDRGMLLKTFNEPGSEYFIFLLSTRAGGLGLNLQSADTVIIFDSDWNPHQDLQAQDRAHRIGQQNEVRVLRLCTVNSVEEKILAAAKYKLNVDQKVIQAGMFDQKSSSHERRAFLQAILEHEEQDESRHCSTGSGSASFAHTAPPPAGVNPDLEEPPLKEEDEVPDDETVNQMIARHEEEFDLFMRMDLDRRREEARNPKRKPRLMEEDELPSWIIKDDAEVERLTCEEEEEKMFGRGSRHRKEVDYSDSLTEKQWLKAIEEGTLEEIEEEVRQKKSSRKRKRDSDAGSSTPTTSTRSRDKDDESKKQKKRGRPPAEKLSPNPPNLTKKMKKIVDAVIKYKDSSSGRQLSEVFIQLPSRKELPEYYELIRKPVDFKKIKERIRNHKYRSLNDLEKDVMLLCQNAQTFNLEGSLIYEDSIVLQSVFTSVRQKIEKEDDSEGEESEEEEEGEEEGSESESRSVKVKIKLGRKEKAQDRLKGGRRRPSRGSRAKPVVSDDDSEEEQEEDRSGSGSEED

Structure (SMILES)	IC50 (BRM)	Ratio* (BRM)	IC50 (BRG-1)
C[C@H]1COCc2ccc(C(=O)NCc3cc4nc(-c5cccc([C@@H]6CC6(F)F)n5)ccc4cn3)cc2S1(=O)=O [Compound 393]	19 nM	33.52	638 nM
O=C(NCc1cc2nc(N3CCCc4cc(C5CC5)cnc43)ccc2cn1)c1ccc2c(c1)S(=O)(=O)CCOC2 [Compound 394]	5.8 nM	15.21	87.9 nM
Cc1cnc2c(c1)CCCN2c1ccc2cnc(CNC(=O)c3cc(F)c4c(c3)S(=O)(=O)CCOC4)cc2n1 [Compound 395]	4.1 nM	14.47	58.6 nM
Cc1cnc2c(c1)CCCN2c1ccc2cnc(CNC(=O)c3ccc4c(c3)S(=O)(=O)[C@@H](C)COC4)cc2n1 [Compound 396]	5.9 nM	17.40	104 nM
Cn1c(C(F)F)cc2c(-c3ccc4cnc(CNC(=O)c5ccc6c(c5)S(=O)(=O)CCOC6)cc4n3)ccnc21 [Compound 397]	15.2 nM	11.51	175 nM
O=C(NCc1cc2nc(-c3cccc(N(C4CCOCC4)C4CC4)n3)ccc2cn1)c1ccc2c(c1)S(=O)(=O)CCOC2 [Compound 398]	185 nM	4.97	919 nM
COc1nc(-c2ccc3cnc(CNC(=O)c4ccc5c(c4)S(=O)(=O)CCOC5)cc3n2)ccc1C(F)F [Compound 399]	7.8 nM	14.57	114 nM
COCCn1ncc2c1CCCN2c1ccc2cnc(CNC(=O)c3ccc4c(c3)S(=O)(=O)CCOC4)cc2n1 [Compound 400]	20.4 nM	23.51	478 nM
COCCN1CCOc2c(-c3ccc4cnc(CNC(=O)c5ccc6c(c5)S(=O)(=O)CCOC6)cc4n3)ccc(F)c21 [Compound 402]	5.7 nM	10.67	60.9 nM
COc1nc(C(F)F)ccc1-c1ccc2cnc(CNC(=O)c3cc(F)c4c(c3)S(=O)(=O)CCOC4)cc2n1 [Compound 404]	8.4 nM	17.03	142 nM
COc1nc(C(F)F)ccc1-c1ccc2cnc(CNC(=O)c3ccc4c(c3)S(=O)(=O)[C@@H](C)COC4)cc2n1 [Compound 405]	10.9 nM	17.27	188 nM
C[C@@H]1CN(c2cccc(-c3ccc4nnc(CNC(=O)c5ccc(Cl)c(S(C)(=O)=O)c5)cc4n3)n2)C[C@H](C)O1 [Compound 406]	5 nM	13.86	69.7 nM
C[C@@H]1CN(c2cccc(-c3ccc4cnc(CNC(=O)c5cnc6c(c5)S(=O)(=O)CCCC6(F)F)cc4n3)n2)C[C@H](C)O1 [Compound 407]	12.5 nM	4.69	58.6 nM

Continued, values first:

IC50 (BRM)	Ratio* (BRM)	IC50 (BRG-1)	Structure (SMILES)
476 nM	4.77	2270 nM	Cc1ccc2c(n1)CN(c1ccc3cnc(CNC(=O)c4ccc5c(c4)S(=O)(=O)CCOC5)cc3n1)CC2 [Compound 408]
16.6 nM	8.58	143 nM	O=C(NCc1cc2nc(-c3cccc4c3OCC[C@H]4OC3COC3)ccc2cn1)c1ccc2c(c1)S(=O)(=O)CCOC2 [Compound 409]
165 nM	6.68	1100 nM	O=C(NCc1cc2nc(-c3cccc4c3OCC[C@@H]4OC3COC3)ccc2cn1)c1ccc2c(c1)S(=O)(=O)CCOC2 [Compound 410]
14.6 nM	18.90	275 nM	COc1nc(C)ccc1-c1ccc2cnc(CNC(=O)c3ccc4c(c3)S(=O)(=O)[C@@H](C)COC4)cc2n1 [Compound 411]
76.5 nM	8.53	653 nM	COC[C@H]1C[C@H]1N(C)c1cccc(-c2ccc3cnc(CNC(=O)c4ccc5c(c4)S(=O)(=O)CCOC5)cc3n2)n1 [Compound 412]
12.9 nM	16.27	210 nM	COC[C@@H]1C[C@@H]1N(C)c1cccc(-c2ccc3cnc(CNC(=O)c4ccc5c(c4)S(=O)(=O)CCOC5)cc3n2)n1 [Compound 413]
23.3 nM	8.27	193 nM	CC1CCc2ccc(-c3ccc4cnc(CNC(=O)c5ccc6c(c5)S(=O)(=O)CCOC6)cc4n3)nc2N1C (stereo not drawn) [Compound 414]
20.6 nM	23.93	494 nM	C[C@@H]1CN(c2cccc(-c3ccc4cnc(CNC(=O)c5ccc6c(c5)S(=O)(=O)CCCN6C)cc4n3)n2)C[C@H](C)O1 [Compound 415]
98.3 nM	21.63	2130 nM	C[C@@H]1CCS(=O)(=O)c2cc(C(=O)NCc3cc4nc(-c5cccc(N6C[C@@H](C)O[C@@H](C)C6)n5)ccc4cn3)ccc2O1 [Compound 416]
13.6 nM	14.19	193 nM	C[C@@H]1CN(c2cccc(-c3ccc4cnc(CNC(=O)c5ccc6c(c5)S(=O)(=O)CC[C@H](C)O6)cc4n3)n2)C[C@H](C)O1 [Compound 418]
